Measurements: publication PMC3510438, “The transmembrane tyrosines Y56, Y91 and Y167 play important roles in determining the affinity and transport rate of the rabbit proton-coupled peptide transporter PepT1” (The International Journal of Biochemistry & Cell Biology, 2009)
Residue numbers refer to the chain shown, from its start.

Tests used:
Experiment in all cases: Uptake of tracer [3H]-D-Phe-L-Gln into Xenopus oocytes
Format in all cases: cell-based, rabbit
Y167Q-rPepT1 = target: T1, Y167Q-rPepT1 (Oryctolagus cuniculus, UniProt P36836, Y167Q); details: both pHout 5.5 and 7.4
T1 construct: expressed in transfected cells; host or cells: Xenopus laevis oocytes injected with cRNA
T1 sequence (P36836 1-707 Y167Q): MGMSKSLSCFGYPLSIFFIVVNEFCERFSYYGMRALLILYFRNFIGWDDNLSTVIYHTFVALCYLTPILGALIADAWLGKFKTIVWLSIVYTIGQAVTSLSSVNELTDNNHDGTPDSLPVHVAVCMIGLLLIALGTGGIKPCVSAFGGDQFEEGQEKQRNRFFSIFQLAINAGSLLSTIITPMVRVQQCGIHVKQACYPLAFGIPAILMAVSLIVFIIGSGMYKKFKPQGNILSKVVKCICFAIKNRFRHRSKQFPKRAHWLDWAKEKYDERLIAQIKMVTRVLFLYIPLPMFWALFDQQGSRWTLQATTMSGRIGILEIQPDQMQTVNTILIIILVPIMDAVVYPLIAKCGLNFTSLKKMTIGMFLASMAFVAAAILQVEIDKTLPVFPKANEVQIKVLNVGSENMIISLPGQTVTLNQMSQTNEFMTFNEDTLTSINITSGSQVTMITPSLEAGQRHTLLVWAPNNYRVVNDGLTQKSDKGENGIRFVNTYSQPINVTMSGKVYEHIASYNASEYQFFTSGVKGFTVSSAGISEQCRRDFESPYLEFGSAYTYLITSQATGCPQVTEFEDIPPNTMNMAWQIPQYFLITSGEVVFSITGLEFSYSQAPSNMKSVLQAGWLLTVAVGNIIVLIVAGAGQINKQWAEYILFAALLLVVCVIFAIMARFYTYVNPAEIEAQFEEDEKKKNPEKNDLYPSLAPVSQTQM
Experimental: (§1) rPepT1 constructs were linearised with XbaI (New England Biolabs, UK) and cRNA generated by in vitro transcription (T7 mMessage mMachine, Ambion, Cambridgeshire, UK). Xenopus laevis oocytes were obtained under MS222 anaesthesia (0.2%, w/v) in accordance with the UK Animals (Scientific Procedures) Act, 1986, and maintained at 18 °C in modified Barth's medium (88 mM NaCl, 1 mM KCl, 0.82 mM MgSO4, 2.4 mM NaHCO3, 0.42 mM CaCl2, 10 mM Hepes, 5 mM sodium pyruvate, 50 μg ml^−1 gentamicin (Fluka, Poole, UK), adjusted to pH 7.6 with 1 M NaOH). Transport measurements were performed at least 72 h after micro-injection of oocytes with 27nl cRNA (1 μg/μl), with medium changed daily.
(§2) Uptake of [^3H]-D-Phe-L-Gln (17.4 Ci/mmole, custom synthesised, Cambridge Research Biochemicals, Stockton-on-Tees, UK) was performed as previously described ([Meredith, 2004]). Briefly, 5 oocytes were incubated in 100 μl of uptake medium (95 mM NaCl, 2 mM KCl, 1 mM CaCl2, 0.42 mM MgCl2, 10 mM Tris/Hepes pH 7.4 or Tris/Mes pH 5.5) with tracer (0.4 μM) [^3H]-D-Phe-L-Gln. After incubation, the oocytes were washed sequentially five times in 1 ml of ice-cold 120 mM NaCl solution, lysed individually with 100 μl 2% (w/v) SDS and liquid scintillation counted. As a control non-injected oocytes were also incubated in uptake medium with D-Phe-L-Gln as above.

Y56F/T58Y-rPepT1 = target: T2, Y56F/T58Y-rPepT1 (Oryctolagus cuniculus, UniProt P36836, T58Y/Y56F); details: both pHout 5.5 and 7.4
T2 construct: expressed in transfected cells; host or cells: Xenopus laevis oocytes injected with cRNA
T2 sequence (P36836 1-707 Y56F/T58Y): T1 sequence (P36836 1-707 Y167Q) with Y56F, T58Y, Q167Y
Experimental: as §1, §2

Y56F-rPepT1 = target: T3, Y56F-rPepT1 (Oryctolagus cuniculus, UniProt P36836, Y56F); details: pHout 5.5; 1 h
T3 construct: expressed in transfected cells; host or cells: Xenopus laevis oocytes injected with cRNA
T3 sequence (P36836 1-707 Y56F): T1 sequence (P36836 1-707 Y167Q) with Y56F, Q167Y
Experimental: as §1, §2

Substance: [^3H]-D-Phe-L-Gln
- reduction of uptake compared to the wild-type (Y167Q-rPepT1): > 90%
- reduction of uptake compared to the wild-type (Y56F/T58Y-rPepT1): > 90%
- decrease in rate of uptake compared to the wild-type (Y56F-rPepT1): ~90%
